Source: PMC12920294, “Optimizing uPAR-targeting radiopeptides for improved tissue distribution: progress towards radionuclide therapy” (European Journal of Nuclear Medicine and Molecular Imaging, 2025)
Read-outs that look alike come from different tables or passages of the source.

Key:
in vivo = conditions: CD1 nude, mouse, 0.5 nmol/mouse, total radioactivity
Experimental: HEK-uPAR xenografted mice were injected with the respective radiopeptide (5 MBq, 0.5 nmol/mouse, 100 µL 0.9% NaCl containing 0.05% BSA) and sacrificed at 4 h and 24 h after injection. […] The tissues and organs of interest were collected, weighed and counted for activity using a γ-counter (Wallac Wizard 1480, PerkinElmer). […] The results were presented as the average ± SD of n = 3 mice. The time-activity curves were determined for the uptake of [^177Lu]Lu-DOTA-AE105 and [^177Lu]Lu-uPAR-11 in the blood, HEK-uPAR xenografts, kidneys and liver based on non-decay corrected biodistribution data. For the blood, the initial uptake (t = 0) was set as 50% IA/g assuming a blood volume of 2 mL for CD1 nude mice. The initial uptake value (t = 0) for all other organs and tissues was set as 0% IA/g. […] The area under the curves over 48 h after injection (AUC0h→48 h) was calculated using GraphPad Prism software (version 10.1.1). Statistical analyses were performed by applying a one-way ANOVA test with a Dunnet’s multiple comparison post‐test to compare the data of the new radiopeptides with those of [^177Lu]Lu-DOTA-AE105 and a Tukey’s multiple comparisons post‐test to compare the novel radiopeptides among them. A p-value of < 0.05 was considered a statistically significant difference using GraphPad Prism software (version 10.1.1).

[1] = format: in vitro ADME; conditions: 1 µM
Experimental: The ^177Lu-labeled peptides (50 MBq/nmol) were incubated in mouse or human blood plasma (10 MBq/200 µL) over an incubation period of 24 h at 37 °C. Aliquots and control samples of the radiopeptides diluted in saline were analyzed after 1 h, 4 h and 24 h using thin layer chromatography (TLC) as previously reported (Supplementary Material). The distribution coefficients (logD values) of the ^177Lu-labeled peptides (50 MBq/nmol) were determined using a shake-flask method according to a previously published procedure (Supplementary Material).
Methods: A sample of each radiopeptide (50 MBq/nmol) was added to mouse blood plasma (Lot: 32321, Rockland Immunochemicals Inc., USA) or to human blood plasma (Stiftung Blutspende SRK Aargau-Solothurn, Switzerland) to obtain an activity concentration of 10 MBq/200 µL. The test samples were incubated at 37 °C for up to 24 h. Control samples referred to the radiopeptides which were instead diluted in saline at an activity concentration of 10 MBq/200 µL. Aliquots of each sample (2 µL, ~100 kBq) were taken after 1 h, 4 h and 24 h and investigated by means of thin layer chromatography (TLC). The employed method involved reversed-phase TLC plates (MERCK Analytical Chromatography, TLC Silica gel 60 RP-18 F254s) as stationary phase and ACN/citrate buffer (3:7; v/v; pH 5.5) as mobile phase. After the eluent reached the front line, the TLC plates were dried and exposed to a phosphor screen (Super resolution screen PSR10450013, PerkinElmer) for 1 min. The respective screen was developed using a storage phosphor system (Cyclone Plus, PerkinElmer) and analyzed using the OptiQuant Software (version 5.0, Bright Instrument Co Ltd., PerkinElmer).

human uPAR = target: T1, human uPAR (Homo sapiens, UniProt Q03405); test: uPAR-binding affinity, saturation binding on HEK-uPAR cells; conditions: 4 °C
T1 construct: host or cells: HEK cells transfected with human uPAR (HEK-uPAR)
T1 sequence (Q03405 23-335): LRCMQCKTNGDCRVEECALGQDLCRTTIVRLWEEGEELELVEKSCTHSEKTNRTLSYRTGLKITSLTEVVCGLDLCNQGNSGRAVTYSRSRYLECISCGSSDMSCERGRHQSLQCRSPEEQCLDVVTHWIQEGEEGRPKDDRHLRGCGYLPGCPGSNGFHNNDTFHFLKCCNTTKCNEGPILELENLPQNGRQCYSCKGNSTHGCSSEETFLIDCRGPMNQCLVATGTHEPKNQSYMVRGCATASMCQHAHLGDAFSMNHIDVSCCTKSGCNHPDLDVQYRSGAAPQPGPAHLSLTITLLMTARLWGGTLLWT
Experimental: To determine the uPAR-binding affinity of the radiopeptides, saturation binding experiments were performed according to a previously published procedure using HEK-uPAR cells in 48-well plates (Supplementary Material). The assay was performed on ice (at 4 °C) to prevent target internalization upon binding of the radiopeptides. The cells were incubated with the radiopeptides in the presence or absence of excess AE105 (40 µM) together with the respective radiopeptides at concentrations ranging between 1 nM and 1600 nM. After removal of the supernatant, the HEK-uPAR cells were rinsed and lysed to be measured using a γ-counter (Wallac Wizard 1480, PerkinElmer). The KD values were determined by plotting the specific binding (values of cell samples incubated without AE105 minus the respective values of samples incubated with AE105) against the molar concentration of the added peptide. A nonlinear regression analysis was performed using GraphPad Prism software (version 10.1.1). The results are reported as average of KD values ± SD of n = 3 independent experiments. Methods: HEK-uPAR cells were seeded in poly-D-lysine-coated 48-well plates (0.25 × 10^6 in 0.5 mL per well) using DMEM culture medium with supplements. The cells were incubated at 37 °C and 5% CO2 overnight to allow adhesion and growth. The well plates with HEK-uPAR cells were placed on ice for the entire experiment to prevent internalization of the radiopeptides. After removal of the medium, the HEK-uPAR cells were rinsed with cold PBS (0.5 mL, pH 7.4) followed by the addition of DMEM culture medium without supplements (450 µL/well) in the presence or absence of AE105 (final concentration 40 µM) as a receptor blocking agent. The cells were incubated for 30 min on ice. The respective radiopeptides (5 MBq/nmol) were diluted in PBS at peptide concentrations 10‒16000 nM. A volume of 50 µL from each dilution was added to each well to obtain peptide concentrations in the range of […]. The assay was performed at 4 °C on ice, to prevent internalization of the radiopeptides. The radiopeptides were incubated on cells for 1 h on a shaker before rinsing twice with PBS (0.5 mL, pH 7.4). Increasing ligand concentrations were used to approximate saturation of the binding sites (Bmax value) at equilibrium. Ligand depletion effects of the ligand concentration in the supernatant of the cell samples were not taken into account. The cells were lysed using an aqueous NaOH solution (1 M, 600 µL) and the lysates were transferred to radioimmunoassay tubes for counting the activity in a γ-counter (Wallac Wizard 1480, PerkinElmer). The KD values were determined by plotting the specific binding (total binding minus unspecific binding) against the molar concentration of the added radiopeptide using GraphPad Prism software (version 10.1.1). The results were then expressed as average ± SD of n = 3 independent experiments.

tissue uptake at 4 h (in vivo; Blood uptake) [%ID/g]	tissue uptake at 24 h (in vivo; Blood uptake) [%ID/g]	tissue uptake at 4 h (in vivo; Bone uptake) [%ID/g]	tissue uptake at 24 h (in vivo; Bone uptake) [%ID/g]	tissue uptake at 4 h (in vivo; Brain uptake) [%ID/g]	tissue uptake at 24 h (in vivo; Brain uptake) [%ID/g]	tissue uptake at 4 h (in vivo; HEK-uPAR xenograft uptake) [%ID/g]	tissue uptake at 24 h (in vivo; HEK-uPAR xenograft uptake) [%ID/g]	tissue uptake at 4 h (in vivo; Heart uptake) [%ID/g]	tissue uptake at 24 h (in vivo; Heart uptake) [%ID/g]	tissue uptake at 4 h (in vivo; Intestines uptake) [%ID/g]	tissue uptake at 24 h (in vivo; Intestines uptake) [%ID/g]	tissue uptake at 4 h (in vivo; Kidneys uptake) [%ID/g]	tissue uptake at 24 h (in vivo; Kidneys uptake) [%ID/g]	tissue uptake at 4 h (in vivo; Liver uptake) [%ID/g]	tissue uptake at 24 h (in vivo; Liver uptake) [%ID/g]	tissue uptake at 4 h (in vivo; Lung uptake) [%ID/g]	tissue uptake at 24 h (in vivo; Lung uptake) [%ID/g]	tissue uptake at 4 h (in vivo; Muscle uptake) [%ID/g]	tissue uptake at 24 h (in vivo; Muscle uptake) [%ID/g]	further results	SMILES
12 ± 1	3.4 ± 1	1.4 ± 0.1	0.78 ± 0.15	0.24 ± 0.01	0.1 ± 0.03	6 ± 0.2	5.7 ± 0.7	4 ± 0.3	1.6 ± 0.2	1.5 ± 0.1	0.76 ± 0.12	3.9 ± 0.1	4.3 ± 0.3	5.3 ± 0.3	4.2 ± 0.3	7.2 ± 1.3	2.6 ± 0.6	1.2 ± 0.1	0.6 ± 0.22	tissue uptake at 4 h (in vivo; Pancreas uptake): 1.4 ± 0.2 %ID/g; tissue uptake at 24 h (in vivo; Pancreas uptake): 0.79 ± 0.24 %ID/g; tissue uptake at 4 h (in vivo; Salivary glands uptake): 2.7 ± 0.2 %ID/g; tissue uptake at 24 h (in vivo; Salivary glands uptake): 1.4 ± 0.2 %ID/g; tissue uptake at 4 h (in vivo; Spleen uptake): 1.9 ± 0.1 %ID/g; tissue uptake at 24 h (in vivo; Spleen uptake): 2 ± 0.6 %ID/g; tissue uptake at 4 h (in vivo; Stomach uptake): 1.4 ± 0.1 %ID/g; tissue uptake at 24 h (in vivo; Stomach uptake): 0.52 ± 0.16 %ID/g; Human blood plasma stability, intact radiopeptide ([1]; 1 h): 100 ± 1%; Mouse blood plasma stability, intact radiopeptide ([1]; 1 h): 100 ± 1%; Human blood plasma stability, intact radiopeptide ([1]; 4 h): 99 ± 1%; Mouse blood plasma stability, intact radiopeptide ([1]; 4 h): 99 ± 1%; Human blood plasma stability, intact radiopeptide ([1]; 24 h): 98 ± 1%; Mouse blood plasma stability, intact radiopeptide ([1]; 24 h): 99 ± 1%; Kd (human uPAR): 38 ± 9 nM	Cc1ccc(CCCC(=O)NCCCCCCCC(=O)NCCCC[C@H](NC(=O)CN2CCN(CC(=O)O)CCN(CC(=O)O)CCN(CC(=O)O)CC2)C(=O)N[C@@H](CC(=O)O)C(=O)N[C@@H](CC2CCCCC2)C(=O)N[C@@H](Cc2ccccc2)C(=O)N[C@H](CO)C(=O)N[C@H](CCCNC(=N)N)C(=O)N[C@@H](Cc2ccc(O)cc2)C(=O)N[C@@H](CC(C)C)C(=O)N[C@@H](Cc2c[nH]c3ccccc23)C(=O)N[C@@H](CO)C(N)=O)cc1 [[^177Lu]Lu-uPAR-12, metal not drawn]
4.5 ± 0.2	0.06 ± 0.01	0.66 ± 0.09	0.19 ± 0.03	0.1 ± 0.01	< 0.03	9 ± 0.5	3.4 ± 0.3	1.7 ± 0.1	0.15 ± 0.01	0.81 ± 0.04	0.21 ± 0.03	4 ± 0.3	2 ± 0.3	2 ± 0.2	0.47 ± 0.05	3 ± 0.6	0.3 ± 0.02	0.51 ± 0.02	0.05 ± 0.01	tissue uptake at 4 h (in vivo; Pancreas uptake): 0.68 ± 0.03 %ID/g; tissue uptake at 24 h (in vivo; Pancreas uptake): 0.12 ± 0.01 %ID/g; tissue uptake at 4 h (in vivo; Salivary glands uptake): 1.1 ± 0.1 %ID/g; tissue uptake at 24 h (in vivo; Salivary glands uptake): 0.26 ± 0.03 %ID/g; tissue uptake at 4 h (in vivo; Spleen uptake): 0.99 ± 0.08 %ID/g; tissue uptake at 24 h (in vivo; Spleen uptake): 0.54 ± 0.11 %ID/g; tissue uptake at 4 h (in vivo; Stomach uptake): 0.69 ± 0.13 %ID/g; tissue uptake at 24 h (in vivo; Stomach uptake): 0.16 ± 0.03 %ID/g; Human blood plasma stability, intact radiopeptide ([1]; 1 h): 100 ± 1%; Mouse blood plasma stability, intact radiopeptide ([1]; 1 h): 100 ± 1%; Human blood plasma stability, intact radiopeptide ([1]; 4 h): 100 ± 1%; Mouse blood plasma stability, intact radiopeptide ([1]; 4 h): 97 ± 4%; Human blood plasma stability, intact radiopeptide ([1]; 24 h): 97 ± 2%; Mouse blood plasma stability, intact radiopeptide ([1]; 24 h): 99 ± 2%; Kd (human uPAR): 37 ± 7 nM	Cc1ccc(CCCC(=O)NCCOCCOCCOCCOCCC(=O)NC[C@H](NC(=O)CN2CCN(CC(=O)O)CCN(CC(=O)O)CCN(CC(=O)O)CC2)C(=O)N[C@@H](CC(=O)O)C(=O)N[C@@H](CC2CCCCC2)C(=O)N[C@@H](Cc2ccccc2)C(=O)N[C@H](CO)C(=O)N[C@H](CCCNC(=N)N)C(=O)N[C@@H](Cc2ccc(O)cc2)C(=O)N[C@@H](CC(C)C)C(=O)N[C@@H](Cc2c[nH]c3ccccc23)C(=O)N[C@@H](CO)C(N)=O)cc1 [[^177Lu]Lu-uPAR-14, metal not drawn]
